PMC9090415, “Discovery of small molecule inhibitors of Plasmodium falciparum apicoplast DNA polymerase” (Journal of Enzyme Inhibition and Medicinal Chemistry, 2022)

Target: P. falciparum apicoplast DNA polymerase (Pf-apPOL) (Plasmodium falciparum, UniProt Q8ILY1)
Assay: Fluorescence-based high-throughput DNA polymerase assay (molecular beacon), primary screen and dose-response
Assay type: biochemical
Conditions: for DNA Pol: 90 min, 10 µM; for % inhibition apPOL 180' 2.5 / % inhibition apPOL 180' 5 / % inhibition apPOL 180' 10 / % inhibition apPOL 180' 20 / % inhibition apPOL 180' 40 / % inhibition apPOL 180' 80: read at 180'
Summary of the method: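 Single-point screening used 10 µM compound with 20 nM polymerase, 20 nM hairpin substrate and 6 µM dNTPs for 90 min at 25 °C. Confirmatory titrations (2.5–80 µM) followed fluorescence at three times, and IC50 was derived from a fit including a cooperativity term n.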

Chain of P. falciparum apicoplast DNA polymerase (Pf-apPOL) (Q8ILY1 entry or part of it): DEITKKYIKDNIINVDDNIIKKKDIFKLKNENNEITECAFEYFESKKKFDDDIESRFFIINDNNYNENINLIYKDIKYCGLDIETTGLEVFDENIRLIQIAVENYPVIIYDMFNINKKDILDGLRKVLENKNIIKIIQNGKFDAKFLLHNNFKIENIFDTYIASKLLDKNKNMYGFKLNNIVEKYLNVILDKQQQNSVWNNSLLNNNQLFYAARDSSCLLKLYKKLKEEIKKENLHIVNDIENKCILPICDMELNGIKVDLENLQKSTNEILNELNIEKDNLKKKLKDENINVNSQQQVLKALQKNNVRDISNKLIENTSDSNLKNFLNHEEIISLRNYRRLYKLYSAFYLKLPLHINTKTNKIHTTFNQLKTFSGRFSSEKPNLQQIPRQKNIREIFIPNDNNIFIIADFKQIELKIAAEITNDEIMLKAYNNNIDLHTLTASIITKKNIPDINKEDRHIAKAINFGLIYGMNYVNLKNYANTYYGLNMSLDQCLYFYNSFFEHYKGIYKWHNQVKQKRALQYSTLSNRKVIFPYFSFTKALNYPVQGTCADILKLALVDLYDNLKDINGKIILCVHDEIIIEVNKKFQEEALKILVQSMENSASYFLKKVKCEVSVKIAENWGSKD

Nc1cc(Oc2ccc(O)c(N)c2)ccc1O [KU0034728]
DNA Pol (186 hits, DNA Pol (screen value), unit not given): 65
DNA Pol ('DNA Pol' (screen value), unit not given): 65
% inhibition Apo pol 10' 2.5 (DRC-1, read at 10', concentration 2.5): 19.846%
% inhibition Apo pol 10' 5 (DRC-1, read at 10', concentration 5): 31.2811%
% inhibition Apo pol 10' 10 (DRC-1, read at 10', concentration 10): 55.4709%
% inhibition Apo pol 10' 20 (DRC-1, read at 10', concentration 20): 70.5604%
% inhibition Apo pol 10' 40 (DRC-1, read at 10', concentration 40): 80.3003%
% inhibition Apo pol 10' 80 (DRC-1, read at 10', concentration 80): 87.2374%
% inhibition Apol 90' 2.5 (DRC-1, read at 90', concentration 2.5): 8.186%
% inhibition Apol 90' 5 (DRC-1, read at 90', concentration 5): 16.785%
% inhibition Apol 90' 10 (DRC-1, read at 90', concentration 10): 34.847%
% inhibition Apol 90' 20 (DRC-1, read at 90', concentration 20): 48.9946%
% inhibition Apol 90' 40 (DRC-1, read at 90', concentration 40): 59.758%
% inhibition Apol 90' 80 (DRC-1, read at 90', concentration 80): 68.9049%
% inhibition apPOL 180' 2.5 (DRC-1, concentration 2.5): 2.338%
% inhibition apPOL 180' 5 (DRC-1, concentration 5): 7.101%
% inhibition apPOL 180' 10 (DRC-1, concentration 10): 22.2951%
% inhibition apPOL 180' 20 (DRC-1, concentration 20): 34.6321%
% inhibition apPOL 180' 40 (DRC-1, concentration 40): 46.6312%
% inhibition apPOL 180' 80 (DRC-1, concentration 80): 55.3391%
% inhibition Apo pol 5' (DRC-2, concentration 5): 43%
% inhibition Apol 40' (DRC-2, concentration 20): 65%
% inhibition Apol 40' (DRC-2, concentration 40): 74%
% inhibition ApPOL 90' (DRC-2, concentration 2.5): 43%
% inhibition ApPOL 90' (DRC-2, concentration 20): 65%
% inhibition apPOL 180' (DRC-2, concentration 10): 43%
% inhibition apPOL 180' (DRC-2, concentration 40): 74%
% inhibition Apo pol 5' 2.5 (DRC-2, read at 5', concentration 2.5): 42%
% inhibition Apo pol 5' 5 (DRC-2, read at 5', concentration 5): 43%
% inhibition Apo pol 5' 10 (DRC-2, read at 5', concentration 10): 50%
% inhibition Apo pol 5' 20 (DRC-2, read at 5', concentration 20): 52%
% inhibition Apo pol 5' 40 (DRC-2, read at 5', concentration 40): 56%
% inhibition Apo pol 5' 80 (DRC-2, read at 5', concentration 80): 30%
% inhibition Apol 40' 2.5 (DRC-2, read at 40', concentration 2.5): 47%
% inhibition Apol 40' 5 (DRC-2, read at 40', concentration 5): 44%
% inhibition Apol 40' 10 (DRC-2, read at 40', concentration 10): 57%
% inhibition Apol 40' 20 (DRC-2, read at 40', concentration 20): 65%
% inhibition Apol 40' 40 (DRC-2, read at 40', concentration 40): 74%
% inhibition Apol 40' 80 (DRC-2, read at 40', concentration 80): 64%
% inhibition ApPOL 90' 2.5 (DRC-2, read at 90', concentration 2.5): 43%
% inhibition ApPOL 90' 5 (DRC-2, read at 90', concentration 5): 40%
% inhibition ApPOL 90' 10 (DRC-2, read at 90', concentration 10): 55%
% inhibition ApPOL 90' 20 (DRC-2, read at 90', concentration 20): 65%
% inhibition ApPOL 90' 40 (DRC-2, read at 90', concentration 40): 76%
% inhibition ApPOL 90' 80 (DRC-2, read at 90', concentration 80): 71%
% inhibition apPOL 180' 2.5 (DRC-2, concentration 2.5): 31%
% inhibition apPOL 180' 5 (DRC-2, concentration 5): 26%
% inhibition apPOL 180' 10 (DRC-2, concentration 10): 43%
% inhibition apPOL 180' 20 (DRC-2, concentration 20): 59%
% inhibition apPOL 180' 40 (DRC-2, concentration 40): 74%
% inhibition apPOL 180' 80 (DRC-2, concentration 80): 75%

Cc1ccc(-n2nnc(C(=O)O)c2-c2ccccn2)c(F)c1 [Molecule 54, Cc1ccc(c(c1)F)n1nnc(c1c1ccccn1)C(=O)O]
DNA Pol ('DNA Pol' of the 186 hits list (primary screen value)): 25
DNA Pol (DNA Pol (primary screen value)): 25
% inhibition Apo pol 10' (DRC-1, concentration 2.5): 7.865%
% inhibition Apo pol 10' (DRC-1, concentration 5): 13.3823%
% inhibition Apo pol 10' (DRC-1, concentration 10): 36.76%
% inhibition Apo pol 10' (DRC-1, concentration 20): 54.7705%
% inhibition Apo pol 10' (DRC-1, concentration 40): 63.8546%
% inhibition Apo pol 10' (DRC-1, concentration 80): 49.8653%
% inhibition Apol 90' (DRC-1, concentration 2.5): 0.06529%
% inhibition Apol 90' (DRC-1, concentration 5): 1.171%
% inhibition Apol 90' (DRC-1, concentration 10): 17.5602%
% inhibition Apol 90' (DRC-1, concentration 20): 37.4412%
% inhibition Apol 90' (DRC-1, concentration 40): 61.51%
% inhibition Apol 90' (DRC-1, concentration 80): 66.8702%
% inhibition apPOL 180' (DRC-1, concentration 2.5): -5.444%
% inhibition apPOL 180' (DRC-1, concentration 5): -7.146%
% inhibition apPOL 180' (DRC-1, concentration 10): 5.348%
% inhibition apPOL 180' (DRC-1, concentration 20): 21.3721%
% inhibition apPOL 180' (DRC-1, concentration 40): 53.298%
% inhibition apPOL 180' (DRC-1, concentration 80): 71.3072%
% inhibition Apo pol 5' (DRC-2, concentration 2.5): 5%
% inhibition Apo pol 5' (DRC-2, concentration 5): 15%
% inhibition Apo pol 5' (DRC-2, concentration 10): 31%
% inhibition Apo pol 5' (DRC-2, concentration 20): 33%
% inhibition Apo pol 5' (DRC-2, concentration 40): 21%
% inhibition Apo pol 5' (DRC-2, concentration 80): -14%
% inhibition Apol 40' (DRC-2, concentration 2.5): 5.55%
% inhibition Apol 40' (DRC-2, concentration 5): 10%
% inhibition Apol 40' (DRC-2, concentration 10): 27%
% inhibition Apol 40' (DRC-2, concentration 20): 42%
% inhibition Apol 40' (DRC-2, concentration 40): 48%
% inhibition Apol 40' (DRC-2, concentration 80): 33%
% inhibition ApPOL 90' (DRC-2, concentration 2.5): 3.47%
% inhibition ApPOL 90' (DRC-2, concentration 5): 6%
% inhibition ApPOL 90' (DRC-2, concentration 10): 22%
% inhibition ApPOL 90' (DRC-2, concentration 20): 39%
% inhibition ApPOL 90' (DRC-2, concentration 40): 52%
% inhibition ApPOL 90' (DRC-2, concentration 80): 45%
% inhibition apPOL 180' (DRC-2, concentration 2.5): 0.3%
% inhibition apPOL 180' (DRC-2, concentration 5): -1.15%
% inhibition apPOL 180' (DRC-2, concentration 10): 13%
% inhibition apPOL 180' (DRC-2, concentration 20): 28%
% inhibition apPOL 180' (DRC-2, concentration 40): 51%
% inhibition apPOL 180' (DRC-2, concentration 80): 55%
